According to patent US10906864B2, “Nitroalkene non steroidal anti-inflammatory drugs (NA-NSAIDS) and methods of treating inflammation related conditions” (Institut Pasteur de Montevideo, priority 2017, dated 2021):

Key:
[1] = test system: NF-κB and inflammasome function in macrophages (THP-1 cells); experiment: IL-1β secretion by ELISA in PMA-differentiated THP-1 macrophages stimulated with LPS and ATP; type: cell-based
Experimental: In order to compare benzoic acid (BA) and nitroalkene benzoic acid (BANA) over NF-κB and inflammasome function in macrophages, THP-1 cells were differentiated into macrophages with PMA (200 nM, 48 h). Cells were then stimulated with LPS (250 ng/mL) and with ATP (5 mM, 45 minutes). Together with LPS (1st signal, FIG. 6) or ATP (2nd signal, FIG. 7), cells were treated with Benzoic acid (30 μM) or BANA (30 μM). Supernatants were collected and IL-1β secretion was measured by ELISA. […] Thus, BANA inhibits both the generation of the inflammasome, and inhibits the inflammasome itself. Further exemplary studies were performed with Flufenamate (FluFE) and nitroalkene flufenamate (FluFENA). In order to study the effect of Flufenamate (FluFE) and FluFENA over NF-κB and inflammasome function in macrophages, THP-1 cells were differentiated into macrophages with PMA (200 nM, 48 h). Cells were stimulated with LPS (250 ng/mL) and then with ATP (5 mM, 45 minutes). […] Cells were stimulated with LPS (250 ng/mL) and then with ATP (5 mM, 45 minutes). Together with LPS (1st signal, FIG. 10) or ATP (2nd signal, FIG. 11), cells were treated with Ibuprofen (20 μM) or IBUNA ([…] were collected and IL-1β secretion was measured by ELISA.

[2] = test system: in vivo model of peritonitis; experiment: In vivo model of peritonitis (LPS-induced inflammatory response), IL-1β by ELISA; parameters: species or system Mice
Experimental: Mice were treated with BANA, Benzoic Acid (50 mg/kg, IP) or the vehicle (100 mM Phosphate buffer 10% DMSO) for 1 hour. Then were injected with LPS (10 mg/kg, IP) or PBS for 2 hours. Mice were collected for peritoneal wash and blood samples were extracted. The peritoneal wash and plasma were stored to measure IL-1β by ELISA. The values are show as mean±SD from three mice per condition and we have used the statistic test one-way ANOVA with Bonferroni.

[3] = mice, 50 mg/kg IP 1 hour before LPS 10 mg/kg IP for 2 hours, as opposed to BA

O=C(O)c1ccc(/C=C/[N+](=O)[O-])cc1 [BANA, (E)-4-(2-nitrovinyl)benzoic acid]
IL-1β secretion, treatment together with LPS (1st signal) ([1]; 30 μM, LPS 250 ng/mL then ATP 5 mM 45 minutes, FIG. 6): inhibition of IL-1β secretion in cells stimulated by LPS
IL-1β secretion, treatment together with ATP (2nd signal) ([1]; 30 μM, LPS 250 ng/mL then ATP 5 mM 45 minutes, FIG. 7): inhibition of IL-1β secretion in cells stimulated by ATP
IL-1β release in LPS-induced inflammatory response (FIG. 12 legend) ([2]; in vivo): in vivo inhibition of IL-1β release
level of IL-1β in blood plasma [2, 3]: marked decrease
level of IL-1β in peritoneal wash [2, 3]: marked decrease

CC(C)Cc1ccc(C(C)C(=O)O)cc1/C=C/[N+](=O)[O-] (stereo not shown) [IBUNA, (E)-2-(4-isobutyl-3-(2-nitrovinyl)phenyl)propanoic acid]
IL-1β secretion, treatment together with LPS (1st signal) or ATP (2nd signal), versus Ibuprofen ([1]; Ibuprofen (20 μM) or IBUNA (20), FIG. 10 and FIG. 11): unexpected superiority

O=C(O)c1cc(/C=C/[N+](=O)[O-])ccc1Nc1cccc(C(F)(F)F)c1 [FluFENA, (E)-5-(2-nitrovinyl)-2-((3-(trifluoromethyl)phenyl)amino)benzoic acid]
IL-1β secretion, treatment together with LPS (1st signal) or ATP (2nd signal), versus Flufenamate (FluFE) ([1]; FluFE (5 μM) or FluFENA (5), FIG. 8 and FIG. 9): unexpected advantage
